Where “and” joins values, the source holds several entries; their conditions need not be identical. Equal values may be shown once. Toxic doses and inconclusive results are not listed.
System: B6C3F1 mice, ip Sarcoma M5076, median survival T/C
Experiment: NCI In Vivo Anticancer Drug Screen. Data for tumor model Sarcoma M5076 (intraperitoneal) in B6C3F1 mice
Details: endpoint: median survival time, higher = longer survival
Procedure: The antitumor activity of compounds was measured in mice bearing transplantable tumors. Survival or tumor size were measured and the results are expressed as the measurement made in the treated group (T) divided by the measurement made in the vehicle treated control group (C). The tumor model used in this assay is Sarcoma M5076 (intraperitoneal) in B6C3F1 mice

[1] = dose: 25.0 mg/kg/injection, schedule: Q04DX004 (ip), vehicle: suspension in saline
[2] = dose: 50.0 mg/kg/injection, schedule: Q04DX004 (ip), vehicle: suspension in saline
[3] = dose: 50.0 mg/kg/injection, schedule: Q04DX004 (ip), vehicle: Klucel (hydroxypropylcellulose) (HPC)
[4] = dose: 100.0 mg/kg/injection, schedule: Q04DX004 (ip), vehicle: Klucel (hydroxypropylcellulose) (HPC)
[5] = dose: 200.0 mg/kg/injection, schedule: Q04DX004 (ip), vehicle: Klucel (hydroxypropylcellulose) (HPC)
[6] = dose: 400.0 mg/kg/injection, schedule: Q04DX004 (ip), vehicle: Klucel (hydroxypropylcellulose) (HPC)
[7] = dose: 50.0 mg/kg/injection, schedule: Q04DX004 (ip), vehicle: saline with Tween-80
[8] = dose: 100.0 mg/kg/injection, schedule: Q04DX004 (ip), vehicle: saline with Tween-80
[9] = dose: 200.0 mg/kg/injection, schedule: Q04DX004 (ip), vehicle: saline with Tween-80
[10] = dose: 400.0 mg/kg/injection, schedule: Q04DX004 (ip), vehicle: saline with Tween-80

SMILES: Oc1ccc(/C=N/Nc2nnc(N/N=C/c3ccc(O)cc3O)c3ccccc23)c(O)c1
- T/C (dose: 6.25 mg/kg/injection, schedule: Q04DX004 (ip), vehicle: suspension in saline): 108 % of control
- T/C (dose: 12.5 mg/kg/injection, schedule: Q04DX004 (ip), vehicle: suspension in saline): 109 % of control
- T/C [1]: 109 % of control
- T/C [2]: 109 % of control
- T/C (dose: 100.0 mg/kg/injection, schedule: Q04DX004 (ip), vehicle: suspension in saline): 119 % of control

SMILES: C=Cc1cc(OC)c2c(c1)c(=O)oc1c2cc(OC)c2c(O)ccc(C3OC(C)C(O)C(C)(O)C3O)c21 (configuration not stated)
- T/C (dose: 10.0 mg/kg/injection, schedule: Q04DX004 (ip), vehicle: DMSO): 114 % of control
- T/C (dose: 20.0 mg/kg/injection, schedule: Q04DX004 (ip), vehicle: DMSO): 110 % of control
- T/C (dose: 40.0 mg/kg/injection, schedule: Q04DX004 (ip), vehicle: DMSO): 88 % of control
- T/C (dose: 80.0 mg/kg/injection, schedule: Q04DX004 (ip), vehicle: DMSO): 118 % of control
- T/C (dose: 160.0 mg/kg/injection, schedule: Q04DX004 (ip), vehicle: DMSO): 100 % of control

SMILES: C[C@@]1(CO)[C@H](O)CC[C@@]2(C)[C@H]1CC[C@H]1C[C@@H]3C[C@@]12CC[C@@]3(O)COC(=O)CN
- T/C (dose: 7.2 mg/kg/injection, schedule: Q03HX027 (ip), vehicle: saline + alcohol): 116 % of control
- T/C (dose: 10.0 mg/kg/injection, schedule: Q03HX027 (ip), vehicle: saline + alcohol): 121 % of control
- T/C (dose: 12.0 mg/kg/injection, schedule: Q03HX027 (ip), vehicle: saline + alcohol): 116 % of control
- T/C (dose: 18.8 mg/kg/injection, schedule: Q04DX004 (ip), vehicle: saline + alcohol): 109 % of control
- T/C (dose: 20.0 mg/kg/injection, schedule: Q03HX027 (ip), vehicle: saline + alcohol): 157 % of control
- T/C (dose: 37.5 mg/kg/injection, schedule: Q04DX004 (ip), vehicle: saline + alcohol): 104 % of control
- T/C (dose: 55.6 mg/kg/injection, schedule: Q03HX027 (ip), vehicle: saline + alcohol): 156 % of control
- T/C (dose: 75.0 mg/kg/injection, schedule: Q04DX004 (ip), vehicle: saline + alcohol): 102 % of control
- T/C (dose: 120.0 mg/kg/injection, schedule: Q01DX009 (ip), vehicle: saline + alcohol): 110 % of control

SMILES: O=CC(S)CO (configuration not stated)
- T/C [1]: 108 % of control
- T/C [2]: 104 % of control
- T/C (dose: 200.0 mg/kg/injection, schedule: Q04DX004 (ip), vehicle: suspension in saline): 118 % of control
- T/C (dose: 400.0 mg/kg/injection, schedule: Q04DX004 (ip), vehicle: suspension in saline): 113 % of control

SMILES: CC1(C)N=C(N)N=C(N)N1c1ccc(CCCCc2ccc(S(=O)(=O)F)cc2Cl)c(Cl)c1
- T/C (dose: 15.0 mg/kg/injection, schedule: Q04DX004 (ip), vehicle: Klucel (hydroxypropylcellulose) (HPC)): 204 % of control
- T/C (dose: 30.0 mg/kg/injection, schedule: Q04DX004 (ip), vehicle: Klucel (hydroxypropylcellulose) (HPC)): 186 % of control
- T/C (dose: 60.0 mg/kg/injection, schedule: Q04DX004 (ip), vehicle: Klucel (hydroxypropylcellulose) (HPC)): 270 % of control
- T/C (dose: 120.0 mg/kg/injection, schedule: Q04DX004 (ip), vehicle: Klucel (hydroxypropylcellulose) (HPC)): 270 % of control
- T/C (dose: 240.0 mg/kg/injection, schedule: Q04DX004 (ip), vehicle: Klucel (hydroxypropylcellulose) (HPC)): 270 % of control

SMILES: O=[N+]([O-])O.[Ga]
- T/C (dose: 25.0 mg/kg/injection, schedule: Q04DX005 (ip), vehicle: saline): 111 % of control
- T/C (dose: 50.0 mg/kg/injection, schedule: Q04DX005 (ip), vehicle: saline): 115 % of control
- T/C (dose: 100.0 mg/kg/injection, schedule: Q04DX005 (ip), vehicle: saline): 115 % of control

SMILES: O=C1CSC(c2cccs2)N1c1nncs1 (configuration not stated)
- T/C [3]: 102 % of control and 111 % of control
- T/C [4]: 98 % of control and 106 % of control
- T/C [5]: 98 % of control and 106 % of control
- T/C [6]: 111 % of control
- T/C (dose: 800.0 mg/kg/injection, schedule: Q04DX004 (ip), vehicle: Klucel (hydroxypropylcellulose) (HPC)): 122 % of control

SMILES: CCOC(=O)Nc1cc(NC(C)/C(=N/O)c2ccccc2)c([N+](=O)[O-])c(N)n1 (configuration not stated)
- T/C [3]: 99 % of control and 100 % of control
- T/C [4]: 109 % of control and 123 % of control
- T/C (dose: 172.8 mg/kg/injection, schedule: Q04DX004 (ip), vehicle: Klucel (hydroxypropylcellulose) (HPC)): 107 % of control
- T/C (dose: 288.0 mg/kg/injection, schedule: Q04DX004 (ip), vehicle: Klucel (hydroxypropylcellulose) (HPC)): 119 % of control
- T/C [6]: 156 % of control
- T/C (dose: 13333.3 mg/kg/injection, schedule: Q04DX004 (ip), vehicle: Klucel (hydroxypropylcellulose) (HPC)): 119 % of control

SMILES: CCOC(=O)c1ccc2c(=O)[nH]nc(CO)c2c1
- T/C (dose: 25.0 mg/kg/injection, schedule: Q04DX004 (ip), vehicle: saline with Tween-80): 99 % of control
- T/C [7]: 99 % of control
- T/C [8]: 99 % of control
- T/C [9]: 101 % of control
- T/C [10]: 94 % of control

SMILES: Nc1ccccc1Sc1cc(Cl)nnc1Cl
- T/C [7]: 97 % of control
- T/C [8]: 98 % of control
- T/C [9]: 102 % of control
- T/C [10]: 88 % of control

SMILES: CCCCCCCC1C(=O)OC2CC3C(C)=CC(=O)C(O)C3(C)C3C4(O)OCC23C1C(C)C4O (configuration not stated)
- T/C (dose: 2.5 mg/kg/injection, schedule: Q04DX004 (ip), vehicle: Klucel (hydroxypropylcellulose) (HPC)): 109 % of control
- T/C (dose: 5.0 mg/kg/injection, schedule: Q04DX004 (ip), vehicle: Klucel (hydroxypropylcellulose) (HPC)): 108 % of control
- T/C (dose: 10.0 mg/kg/injection, schedule: Q04DX004 (ip), vehicle: Klucel (hydroxypropylcellulose) (HPC)): 109 % of control
- T/C (dose: 20.0 mg/kg/injection, schedule: Q04DX004 (ip), vehicle: Klucel (hydroxypropylcellulose) (HPC)): 106 % of control

SMILES: CC1(O)C=CC(=O)C=C1
- T/C (dose: 12.5 mg/kg/injection, schedule: Q04DX004 (ip), vehicle: water): 104 % of control
- T/C (dose: 25.0 mg/kg/injection, schedule: Q04DX004 (ip), vehicle: water): 102 % of control and 113 % of control
- T/C (dose: 50.0 mg/kg/injection, schedule: Q04DX004 (ip), vehicle: water): 109 % of control and 114 % of control

SMILES: OC(C1CO1)C(O)C1CO1 (configuration not stated)
- T/C (dose: 1.0 mg/kg/injection, schedule: Q04DX005 (ip), vehicle: saline): 123 % of control
- T/C (dose: 2.0 mg/kg/injection, schedule: Q04DX005 (ip), vehicle: saline): 169 % of control
- T/C (dose: 4.0 mg/kg/injection, schedule: Q04DX005 (ip), vehicle: saline): 287 % of control
- T/C (dose: 8.0 mg/kg/injection, schedule: Q04DX005 (ip), vehicle: saline): 319 % of control

SMILES: Cc1ccc(-n2c(CSc3ccc(Cl)cc3)nnc2SCc2nc3ccccc3[nH]2)cc1
- T/C (dose: 18.75 mg/kg/injection, schedule: Q04DX004 (ip), vehicle: saline with Tween-80): 95 % of control
- T/C (dose: 37.5 mg/kg/injection, schedule: Q04DX004 (ip), vehicle: saline with Tween-80): 104 % of control
- T/C (dose: 75.0 mg/kg/injection, schedule: Q04DX004 (ip), vehicle: saline with Tween-80): 100 % of control
- T/C (dose: 150.0 mg/kg/injection, schedule: Q04DX004 (ip), vehicle: saline with Tween-80): 95 % of control

SMILES: COc1cc(C(C)c2cc3c(cc2OCCO)OCO3)cc(OC)c1OC (configuration not stated)
- T/C [8]: 108 % of control
- T/C [9]: 104 % of control

SMILES: COC(=O)NC1C(C)OC(OC2C/C=C(/C)C3C=CC4C(OC5CC(OC6CC(O)C(OC7CC(O)C(OC)C(C)O7)C(C)O6)C(O)C(C)O5)C(C)CC(C)C4C3(C)/C(O)=C3\C(=O)OC4(CC(C)C(CO)=CC4/C=C\2C)C3=O)CC1(C)[N+](=O)[O-] (configuration not stated)
- T/C (dose: 25.0 mg/kg/injection, schedule: Q04DX004 (ip), vehicle: Klucel (hydroxypropylcellulose) (HPC)): 105 % of control
- T/C [3]: 100 % of control
- T/C [4]: 87 % of control
- T/C [5]: 100 % of control
